The record followed here is the supplement of paper PMC10307832.

What all share (experiment): relative viability (nuclei count vs DMSO), 5 days (fraction); higher = more cells survive
Compound in test [1]: CCN(CCO)CCCC(C)Nc1ccnc2cc(Cl)ccc12 [Hydroxychloroquine] + CC1(C)CCC(c2ccc(Cl)cc2)=C(CN2CCN(c3ccc(C(=O)NS(=O)(=O)c4ccc(N[C@H](CCN5CCOCC5)CSc5ccccc5)c(S(=O)(=O)C(F)(F)F)c4)cc3)CC2)C1 [Navitoclax] (partner 0.5 µM)
In short, it runs like this: (§1)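 A single step with final 0.05% Triton X-100, 1% formaldehyde and 1 ug/ml Hoechst fixed the cells and stained nuclei 5 days after treatment. Lung cancer cell lines in 1536-well plates had been treated by pin tool the day after seeding with one drug alone or a fixed anchor-drug dose plus five library-drug doses (not always all listed) in √10 steps, and nuclei were counted on 4× images. Relative viability is the ratio of nuclei in treated wells to nuclei in vehicle wells, taken as the median of duplicate plates.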

Compound in test [2]: CCN(CCO)CCCC(C)Nc1ccnc2cc(Cl)ccc12 [Hydroxychloroquine] + C[C@@H](Oc1cc(-c2cnn(C3CCNCC3)c2)cnc1N)c1c(Cl)ccc(F)c1Cl [Crizotinib] (partner 1 µM)
In short, it runs like this: as §1

Compound in test [3]: CCN(CCO)CCCC(C)Nc1ccnc2cc(Cl)ccc12 [Hydroxychloroquine] + Cc1nc(Nc2ncc(C(=O)Nc3c(C)cccc3Cl)s2)cc(N2CCN(CCO)CC2)n1 [Dasatinib] (partner 0.075 µM)
In outline: as §1

Compound in test [4]: CCN(CCO)CCCC(C)Nc1ccnc2cc(Cl)ccc12 [Hydroxychloroquine] + O=C(CCCCCCC(=O)Nc1ccccc1)NO [Vorinostat] (partner 1 µM)
In short, it runs like this:
as §1

For LXF-289, the relative viability in test [1] (first compound 0.5 µM) was 0.956; in test [1] (first compound 1.581 µM), 0.986; in test [1] (first compound 5 µM) it was 0.983; in test [1] (first compound 15.81 µM) it was 0.948; in test [1] (first compound 50 µM), 0.999; in test [2] (first compound 0.5 µM), 0.838. Besides, the relative viability turned out to be 0.773 in test [2] (first compound 1.581 µM); 0.803 in test [2] (first compound 5 µM); 0.822 in test [2] (first compound 15.81 µM); 0.853 in test [2] (first compound 50 µM); 0.234 in test [3] (first compound 0.5 µM); 0.212 in test [3] (first compound 1.581 µM). The relative viability was found to be 0.217 in test [3] (first compound 5 µM); 0.202 in test [3] (first compound 15.81 µM); 0.195 in test [3] (first compound 50 µM); 0.767 in test [4] (first compound 0.5 µM); 0.795 in test [4] (first compound 1.581 µM); 0.723 in test [4] (first compound 5 µM). Moreover, the relative viability in test [4] (first compound 15.81 µM) amounted to 0.757; in test [4] (first compound 50 µM) it was 0.709.
Take PC-3 [JPC-3]: the relative viability turned out to be 0.851 in test [1] (first compound 0.5 µM); 0.776 in test [1] (first compound 1.581 µM); 0.83 in test [1] (first compound 5 µM); 0.67 in test [1] (first compound 15.81 µM); 0.85 in test [1] (first compound 50 µM); 0.999 in test [2] (first compound 0.5 µM). Further, the relative viability is 1 in test [2] (first compound 1.581 µM); 1.06 in test [2] (first compound 5 µM); 0.98 in test [2] (first compound 15.81 µM); 1.16 in test [2] (first compound 50 µM); 0.94 in test [3] (first compound 0.5 µM); 0.873 in test [3] (first compound 1.581 µM). In addition, the relative viability in test [3] (first compound 5 µM) is 0.971; in test [3] (first compound 15.81 µM), 1.21; in test [3] (first compound 50 µM), 1.16; in test [4] (first compound 0.5 µM), 0.918; in test [4] (first compound 1.581 µM), 0.847; in test [4] (first compound 5 µM), 0.652. The relative viability was found to be 0.737 in test [4] (first compound 15.81 µM) and 0.782 in test [4] (first compound 50 µM).
As for HOP-62, the relative viability in test [1] (first compound 0.5 µM) came to 0.962; in test [1] (first compound 1.581 µM), 1.13; in test [1] (first compound 5 µM) it was 1.1; in test [1] (first compound 15.81 µM), 1.03; in test [1] (first compound 50 µM) it was 1.13; in test [2] (first compound 0.5 µM), 0.954. The relative viability is 0.836 in test [2] (first compound 1.581 µM); 0.843 in test [2] (first compound 5 µM); 1.05 in test [2] (first compound 15.81 µM); 0.744 in test [2] (first compound 50 µM); 0.57 in test [3] (first compound 0.5 µM); 0.601 in test [3] (first compound 1.581 µM). Besides, the relative viability turned out to be 0.717 in test [3] (first compound 5 µM); 0.636 in test [3] (first compound 15.81 µM); 0.58 in test [3] (first compound 50 µM); 0.584 in test [4] (first compound 0.5 µM); 0.628 in test [4] (first compound 1.581 µM); 0.573 in test [4] (first compound 5 µM). The figures for the relative viability in test [4] (first compound 15.81 µM) and in test [4] (first compound 50 µM) were 0.574 and 0.69, respectively.
On to SK-MES-1, for which the relative viability amounted to 1.45 in test [1] (first compound 0.5 µM); 1.21 in test [1] (first compound 1.581 µM); 1.25 in test [1] (first compound 5 µM); 1.27 in test [1] (first compound 15.81 µM); 1.17 in test [1] (first compound 50 µM); 0.933 in test [2] (first compound 0.5 µM). Further, the relative viability in test [2] (first compound 1.581 µM) is 0.955; in test [2] (first compound 5 µM) it was 1.13; in test [2] (first compound 15.81 µM), 1.1; in test [2] (first compound 50 µM), 1.03; in test [3] (first compound 0.5 µM), 0.342; in test [3] (first compound 1.581 µM), 0.306. In addition, the relative viability stood at 0.388 in test [3] (first compound 5 µM); 0.37 in test [3] (first compound 15.81 µM); 0.339 in test [3] (first compound 50 µM); 1.33 in test [4] (first compound 0.5 µM); 0.882 in test [4] (first compound 1.581 µM); 1.2 in test [4] (first compound 5 µM). The figures for the relative viability in test [4] (first compound 15.81 µM) and in test [4] (first compound 50 µM) were 1.23 and 1.27, respectively.
Turning to NCI-H1666, the relative viability was 0.921 in test [1] (first compound 0.5 µM); 0.951 in test [1] (first compound 1.581 µM); 0.986 in test [1] (first compound 5 µM); 0.827 in test [1] (first compound 15.81 µM); 0.918 in test [1] (first compound 50 µM); 0.872 in test [2] (first compound 0.5 µM). Further, the relative viability amounted to 1.11 in test [2] (first compound 1.581 µM); 0.948 in test [2] (first compound 5 µM); 0.837 in test [2] (first compound 15.81 µM); 1.14 in test [2] (first compound 50 µM); 0.845 in test [3] (first compound 0.5 µM); 0.771 in test [3] (first compound 1.581 µM). Moreover, the relative viability in test [3] (first compound 5 µM) turned out to be 0.815; in test [3] (first compound 15.81 µM), 0.793; in test [3] (first compound 50 µM) it was 0.765; in test [4] (first compound 0.5 µM), 0.991; in test [4] (first compound 1.581 µM), 0.943; in test [4] (first compound 5 µM), 1.01. The relative viability in test [4] (first compound 15.81 µM) was determined as 0.92; in test [4] (first compound 50 µM) it was 0.936.
Consider NCI-H1355, for which the relative viability worked out at 0.891 in test [1] (first compound 0.5 µM); 0.879 in test [1] (first compound 1.581 µM); 0.876 in test [1] (first compound 5 µM); 0.991 in test [1] (first compound 15.81 µM); 1.01 in test [1] (first compound 50 µM); 1.08 in test [2] (first compound 0.5 µM). Besides, the relative viability worked out at 1.01 in test [2] (first compound 1.581 µM); 1.11 in test [2] (first compound 5 µM); 1.08 in test [2] (first compound 15.81 µM); 1.1 in test [2] (first compound 50 µM); 0.74 in test [3] (first compound 0.5 µM); 0.59 in test [3] (first compound 1.581 µM). In addition, the relative viability was 0.693 in test [3] (first compound 5 µM); 0.705 in test [3] (first compound 15.81 µM); 0.875 in test [3] (first compound 50 µM); 0.657 in test [4] (first compound 0.5 µM); 0.582 in test [4] (first compound 1.581 µM); 0.631 in test [4] (first compound 5 µM). Further, the figures for the relative viability in test [4] (first compound 15.81 µM) and in test [4] (first compound 50 µM) were 0.63 and 0.657, respectively.
Regarding HCC-827, the relative viability was determined as 0.941 in test [1] (first compound 0.5 µM); 1.02 in test [1] (first compound 1.581 µM); 1.03 in test [1] (first compound 5 µM); 1.1 in test [1] (first compound 15.81 µM); 1.02 in test [1] (first compound 50 µM); 0.86 in test [2] (first compound 0.5 µM). Moreover, the relative viability in test [2] (first compound 1.581 µM) is 0.916; in test [2] (first compound 5 µM), 1.01; in test [2] (first compound 15.81 µM), 0.976; in test [2] (first compound 50 µM) it was 0.871; in test [3] (first compound 0.5 µM), 0.306; in test [3] (first compound 1.581 µM) it was 0.378. Moreover, the relative viability is 0.312 in test [3] (first compound 5 µM); 0.388 in test [3] (first compound 15.81 µM); 0.314 in test [3] (first compound 50 µM); 0.811 in test [4] (first compound 0.5 µM); 0.873 in test [4] (first compound 1.581 µM); 0.786 in test [4] (first compound 5 µM). Further, the relative viability in test [4] (first compound 15.81 µM) was determined as 0.759; in test [4] (first compound 50 µM), 0.571.
